Source: patent US5650404A, “Therapeutic composition for pancreatitis” (Senju Pharmaceutical Co., Ltd., priority 1994, dated 1997)
Read-outs that look alike come from different tables or passages of the source.

How the values were obtained:
[1] = test system: ethionine-induced pancreatitis (serum amylase); assay: Effect on serum amylase elevation in ethionine-induced severe pancreatitis; assay type: in vivo, female BALB/c mice; settings: for serum amylase level, 0 Hr: 0 Hr (start of ethionine-supplemented food, before dosing at 12 h); for serum amylase level, 0 Hr / serum amylase level, 24 Hr / serum amylase level, 48 Hr: p.o., EPC-K 141 mg/10 ml/kg, camostat 100 mg/10 ml/kg, mean ± S.E.; for serum amylase level, 24 Hr: 24 h after beginning of ethionine-supplemented food; for serum amylase level, 48 Hr: 48 h after beginning of ethionine-supplemented food, *1 (EPC-K): p < 0.01 vs distilled water
Procedure: The therapeutic efficacy of the compound was tested in ethionine-induced pancreatitis which is a model of severe human pancreatitis. The efficacy evaluation was based on the degree of inhibition of the release of amylase into blood which is an indicator of pancreatitis.
(1) Investigational Substance
L-Ascorbyl DL-α-tocopheryl phosphate potassium (briefly, EPC-K) 141 mg/10 ml/kg, p.o.
Camostat monomethanesulfonate (Ono Pharmaceutical) 100 mg/10 ml/kg, p.o.
Animals used: Thirty female BALB/c mice weighing about 18 g as purchased from Japan SLC were used in this experiment. The mice were accommodated in an animal room controlled at 24°±4° C. and 55±15% R. H. and while the animals in the ethionine-induced pancreatitis groups were given low-choline, 0.54 ethionine-supplemented food (prepared by SLC) ad libitum, the animals in the untreated control group were given Labo MR Stock (tradename) (Nihon Nosan Kogyo) ad libitum. Water was freely available for animals in the ethionine pancreatitis groups and the untreated group. The mice were deprived of food 12 hours before commencement of feeding.
Method: Each test substance was administered 12 hours after the beginning of intake of ethionine-supplemented food. Blood sampling was made 24 and 48 hours after the beginning of intake of ethionine-supplemented food and the serum amylase levels were determined.

LD50 (toxicity) = settings: rat, in vivo, rats

Row | Compound | serum amylase level, 0 Hr [1] | serum amylase level, 24 Hr [1] | serum amylase level, 48 Hr [1] | LD50 (LD50 (toxicity); iv, i.v., read-out: LD50 i.v.) | LD50 (LD50 (toxicity); po, p.o., read-out: LD50 p.o.) | inhibition of serum amylase elevation (in words) ([1]; 48 h, compared with distilled water group)
1 | Cc1c(C)c2c(c(C)c1OP(=O)(O)OC1=C(O)[C@@H]([C@@H](O)CO)OC1=O)CCC(C)(CCCC(C)CCCC(C)CCCC(C)C)O2 (mixture of isomers) [EPC-K, L-Ascorbyl DL-α-tocopheryl phosphate potassium] | 14573 ± 3132 mU/ml | 12926 ± 2217 mU/ml | 16257 ± 9763 mU/ml | ≥ 100 mg/kg | ≥ 5000 mg/kg | 
2 | CN(C)C(=O)COC(=O)Cc1ccc(OC(=O)c2ccc(NC(=N)N)cc2)cc1 [Camostat monomethanesulfonate] | 13978 ± 1012 mU/ml | 12628 ± 1542 mU/ml | 36288 ± 13921 mU/ml |  |  | no inhibitory effect on amylase elevation
